Consider 1 compound from patent US6835401B2, “Method of treating diseases caused by over-production of free-radicals” (Pharmaton SA, priority 2000, dated 2004).

In the assay the test system is glutathione peroxidase (GSH-PX). The experiment in a line: Glutathione peroxidase (GSH-PX) activity in keratinocytes. The settings on record: 50 nM Se (sodium selenite 50 nM; selenium yeast 3.95 μg/ml), control cells. Format: cell-based, human. As to the method:
Cultures were maintained at 37° C. in a humidified 5% CO2 atmosphere.

In the case of `O=[Se](O)O` [sodium selenite], the GSH-PX activity was 91.44±10.37 mU/mg protein. The “induction of GSH-PX activity, fold increase vs controls” value (48 h) was found to be 3.365 fold.
